Laboratory results from US20100261682A1, “Method and Means for the Treatment of Cachexia” (Bioneris AB, priority 2007, published 2010).

Legend:
[1] = tested on: MAC16 tumour; assay: Tumour volume in MAC16 tumour-bearing mice treated with lipid soluble alpha-trinositol (Example 5); assay type: in vivo, NMRI mice; details: 6 mg/kg and 8 mg/kg groups versus control
Source text: (§1) Animals. Pure strain male NMRI mice (average body weight 25 g) were transplanted with fragments of the MAC16 tumour subcutaneously into the flank by means of a trochar, selected from donor animals with established weight loss (Bibby M C et al., Characterization of transplantable adenocarcinoma in the mouse colon producing cachexia in the recipient animals. J Natl Cancer Inst 78 (1987) 539-546). Transplanted animals were given a rat and mouse breeding diet (Special Diet Services, Witham, UK) and water at lib. Weight loss was evident 10 to 12 days after tumour implantation. Just prior to the development of weight loss […] were randomized into three groups of six animals each.
(§2) Administration of alpha-trinositol. A first experiment was started when the animals had lost about 5% of body weight. Aliquots of lipid soluble alpha-trinositol stock solution corresponding to doses of 6 mg/kg body weight and 8 mg/kg body weight for a 25 g animal were administered subcutaneously three times per day at 8.00, 12.00 and 16.00 hrs. The third group (control) was given an intravenous injection of 10 μl of PBS. Body weight (FIG. 26), tumour volume, and food (FIG. 27) and water (FIG. 28) intake were determined daily (for 5 days) after the last injection. Day 0 is the day of transplant and day 1 is the start of the experiment. The experiment was terminated on day 5 due to loss of controls.

[2] = tested on: MAC16 tumour-bearing mice; assay: Body weight, food and water intake in MAC16 tumour-bearing mice treated with lipid soluble alpha-trinositol (Example 5); assay type: in vivo, NMRI mice; details: for weight loss compared to the control group: 5 days
Source text: Materials. Lipid soluble alpha trinositol (1-D-tri-O-hexanoyl-myo-inositol 1,2,6-triphosphate) was formed by further esterification of 1-D-Myo-inositol 1,2,6-triphosphate.
as §1, §2

SMILES: CCCCCC(=O)O[C@@H]1[C@@H](OC(=O)CCCCC)[C@@H](OP(=O)(O)O)[C@@H](OP(=O)(O)O)[C@H](OP(=O)(O)O)[C@H]1OC(=O)CCCCC [lipid soluble alpha trinositol, 1-D-tri-O-hexanoyl-myo-inositol 1,2,6-triphosphate]
- increase in tumour volume [1]: slightly higher in the control group
- weight loss compared to the control group ([2]; 6 mg/kg s.c. three times per day): significantly lower weight loss
- weight loss compared to the control group ([2]; 8 mg/kg s.c. three times per day): significantly lower weight loss
- average weight loss in 5 days ([2]; highest concentration (8 mg/kg), control about 6 g): about 3 g
